Data as given in patent US10881110B2, “Herbicidal compositions comprising isoxazolo[5,4-b]pyridines” (BASF SE, priority 2014, dated 2021).

Tests used:
Test in all cases: greenhouse post-emergence herbicidal test
[1] = test system: ABUTH; type: in vivo, Abutilon theophrast; set-up: key to herbicidal activity against ABUTH found: rating on a scale from 0 to 100; settings: post emergence
In short: (§1)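 Herbicidal activity scored on a 0 (no damage) to 100 (plants destroyed) scale, usually 20 days after water-based spraying of 1–15 cm plants grown in loamy sand at 10-25 °C or 20-35 °C depending on species. Components were applied from 10% emulsion concentrates; Colby's E=X+Y−(X·Y/100) gives the additive expectation.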

[2] = test system: ALOMY; type: in vivo, Alopecurus myosuroides; set-up: key to herbicidal activity against ALOMY found: rating on a scale from 0 to 100; settings: post emergence
In short: as §1

[3] = test system: AMBEL; type: in vivo, Ambrosia artemisiifolia; set-up: key: rating on a scale from 0 to 100
Protocol: (§2) The culture containers used were plastic pots containing medium loamy sand with approximately 4.6% of humus and 69.9% sand as substrate. The seeds of the test plants were sown separately for each species.
(§3) For the post-emergence treatment, the test plants were grown to a plant height of from 1 to 15 cm, depending on the plant habit, and only then treated with the active compounds which had been suspended or emulsified in water. To this end, the test plants were either sown directly, and grown in the same containers, or they were first grown separately as seedlings and transplanted into the test containers a few days prior to treatment.
(§4) Depending on the species, the plants were kept at 10-25° C. and 20-35° C., respectively.
(§5) The test period extended over 1 to 3 weeks. During this time, the plants were tended and their response to the individual treatments was evaluated 20 days after treatment except mentioned otherwise.
(§6) Evaluation was carried out using a scale from 0 to 100. 100 means no emergence of the plants, or complete destruction of at least the above-ground parts, and 0 means no damage or normal course of growth.
(§7) The respective stated components A and B, and, if appropriate, C, were formulated as a 10% by weight strength emulsion concentrate and, with addition of the amount of solvent system, introduced into the spray liquor used for applying the active compound. In the examples, the solvent used was water.
(§8) In the examples below, using the method of S. R. Colby (1967) “Calculating synergistic and antagonistic responses of herbicide combinations”, Weeds 15, p. 22 ff., the value E, which is expected if the activity of the individual active compounds is only additive, was calculated. E=X+Y−(X·Y/100)

[4] = test system: APESV; type: in vivo, Apera spica-venti; set-up: key to herbicidal activity against APESV found: rating on a scale from 0 to 100; settings: post emergence; for herbicidal activity against APESV found: single active
In short: as §1

[5] = test system: IPOHE; type: in vivo, Ipomoea hederacea; set-up: key to herbicidal activity against IPOHE found: rating on a scale from 0 to 100; settings: post emergence
In short: as §1

[6] = test system: MATCH; type: in vivo, Matricaria recutita; set-up: key to herbicidal activity against MATCH found: rating on a scale from 0 to 100; settings: post emergence
In short: as §1

[7] = test system: POLCO; type: in vivo, Polygonum convolvulus; set-up: key to herbicidal activity against POLCO found: rating on a scale from 0 to 100; settings: post emergence
In short: as §1

[8] = test system: ECHCG; type: in vivo, Echinochloa crus-galli; set-up: key to herbicidal activity against ECHCG found / herbicidal activity against ECHCH found: scale 0 to 100; settings: post emergence; I.1 31.25 g/ha, B.103 7.5 g/ha a.i.
In short: as §1

[9] = test system: ERICA; type: in vivo, Conyza canadensis; set-up: key to herbicidal activity against ERICA found: rating on a scale from 0 to 100; settings: post emergence
In short: as §1

[10] = test system: GALAP; type: in vivo, Galium aparine; set-up: key to herbicidal activity against GALAP found: rating on a scale from 0 to 100; settings: post emergence
In short: as §1

[11] = test system: GERDI; type: in vivo, Geranium dissectum; set-up: key to herbicidal activity against GERDI found: rating on a scale from 0 to 100; settings: post emergence
In short: as §1

[12] = test system: KCHSC; type: in vivo, Kochia scoparia; set-up: key to herbicidal activity against KCHSC found: rating on a scale from 0 to 100; settings: post emergence
In short: as §1

[13] = test system: PAPRH; type: in vivo, Papaver rhoeas; set-up: key: rating on a scale from 0 to 100; settings: B.103 15 g/ha a.i.
In short: as §1

[14] = test system: STEME; type: in vivo, Stellaria media; set-up: key: scale 0 to 100; settings: I.1 15.62 g/ha, B.103 15 g/ha a.i.
Protocol: as §2, §3, §4, §5, §6, §7, §8

[15] = test system: VIOAR; type: in vivo, Viola arvensis; set-up: key to herbicidal activity against VIOAR found / herbicidal activity against VIOLA found: rating on a scale from 0 to 100; settings: post emergence
In short: as §1

[16] = I.1 31.25 g/ha, B.103 15 g/ha a.i.
[17] = I.1 62.5 g/ha, B.103 7.5 g/ha a.i.
[18] = I.1 62.5 g/ha, B.103 15 g/ha a.i.
[19] = I.1 15.6 g/ha, B.103 7.5 g/ha a.i.
[20] = I.1 31.25 g/ha, B.103 7.5 g/ha a.i.
[21] = application rate a.i.: I.1 31.25 g/ha, B.100 (isoxaflutole) 12.5 g/ha, alone or as mixture (composition 1.100)
[22] = application rate a.i.: I.1 62.5 g/ha, B.100 (isoxaflutole) 12.5 g/ha, alone or as mixture (composition 1.100)

Question: Which results are given for `Cc1cnc(C2=NC(=O)C(C)(C(C)C)N2)c(C(=O)O)c1` (stereo not shown) [B.32, imazapic]?
Answer: pest or weed control at 6 g/ha ([1]; Abutilon theophrasti, post-emergence, 480 h, B.32 alone 6 g/ha a.i., read-out: herbicidal activity against ABUTH found): 85%; pest or weed control at 3 g/ha ([2]; Alopecurus myosuroides, post-emergence, 480 h, B.32 alone 3 g/ha a.i., read-out: herbicidal activity against ALOMY found): 25%; herbicidal activity against AMBEL found ([3]; B.32 alone 3 g/ha a.i.): 0; herbicidal activity against AMBEL found ([3]; B.32 alone 6 g/ha a.i.): 65; pest or weed control at 3 g/ha ([4]; Apera spica-venti, post-emergence, 480 h, B.32 alone 3 g/ha a.i., read-out: herbicidal activity against APESV found): 65%; pest or weed control at 6 g/ha ([4]; Apera spica-venti, post-emergence, 480 h, B.32 alone 6 g/ha a.i., read-out: herbicidal activity against APESV found): 80%; pest or weed control at 6 g/ha ([5]; Ipomoea hederacea, post-emergence, 480 h, B.32 alone 6 g/ha a.i., read-out: herbicidal activity against IPOHE found): 75%; pest or weed control at 3 g/ha ([6]; Matricaria chamomilla, post-emergence, 480 h, B.32 alone 3 g/ha a.i., read-out: herbicidal activity against MATCH found): 0%; pest or weed control at 6 g/ha ([6]; Matricaria chamomilla, post-emergence, 480 h, B.32 alone 6 g/ha a.i., read-out: herbicidal activity against MATCH found): 30%; pest or weed control at 3 g/ha ([7]; Fallopia convolvulus, post-emergence, 480 h, B.32 alone 3 g/ha a.i., read-out: herbicidal activity against POLCO found): 85%

Question: Which “herbicidal activity against ECHCG found” value [8] does the source give for `O=C(Nc1ccc(F)cc1)c1cccc(Oc2cccc(C(F)(F)F)c2)n1` [B.103, picolinafen] here?
Answer: 20

Question: What about the “herbicidal activity against ERICA found” value [9, 16] of the same molecule?
Answer: 65

Question: And the “herbicidal activity against ERICA found” value [9, 17]?
Answer: 25

Question: And the “herbicidal activity against ERICA found” value [9, 18]?
Answer: 65

Question: And the “herbicidal activity against GALAP found” value [10, 17]?
Answer: 70

Question: And the “herbicidal activity against GERDI found” value [11, 19]?
Answer: 0

Question: And the “herbicidal activity against GERDI found” value [11, 20]?
Answer: 0

Question: And the “herbicidal activity against GERDI found” value [11, 16]?
Answer: 0

Question: And the “herbicidal activity against GERDI found” value [11, 17]?
Answer: 0

Question: What about the “herbicidal activity against GERDI found” value [11, 18] of the same molecule?
Answer: 0

Question: What about the “herbicidal activity against IPOHE found” value [5, 19] of the same molecule?
Answer: 40

Question: And the “herbicidal activity against IPOHE found” value [5, 16]?
Answer: 60

Question: And the “herbicidal activity against KCHSC found” value [12, 20]?
Answer: 60

Question: And the “herbicidal activity against KCHSC found” value [12, 16]?
Answer: 60

Question: What about the “herbicidal activity against KCHSC found” value [12, 17] of the same molecule?
Answer: 60

Question: What about the “herbicidal activity against KCHSC found” value [12, 18] of the same molecule?
Answer: 60

Question: And the “herbicidal activity against PAPRH found” value ([13]; I.1 15.62 g/ha)?
Answer: 70

Question: And the “herbicidal activity against PAPRH found” value ([13]; I.1 31.25 g/ha)?
Answer: 70

Question: What about the “herbicidal activity against POLCO found” value [7, 19] of the same molecule?
Answer: 40

Question: What about the “herbicidal activity against POLCO found” value [7, 17] of the same molecule?
Answer: 40

Question: What about the “herbicidal activity against POLCO found” value [7, 18] of the same molecule?
Answer: 70

Question: And the “herbicidal activity against STEME found” value [14]?
Answer: 65

Question: What does the source list for `Cc1ccc2c(c1)[C@H](Nc1nc(N)nc(C(C)F)n1)[C@@H](C)C2` (stereo partly shown) [B.178, indaziflam]?
Answer: herbicidal activity against ABUTH found ([1]; single active, 6 g/ha a.i.): 60; herbicidal activity against AMBEL found ([3]; single active, 6 g/ha a.i.): 70; herbicidal activity against APESV found ([4]; 3 g/ha a.i.): 40; herbicidal activity against ERICA found ([9]; single active, 3 g/ha a.i.): 15; herbicidal activity against ERICA found ([9]; single active, 6 g/ha a.i.): 60; herbicidal activity against GALAP found ([10]; single active, 3 g/ha a.i.): 65; herbicidal activity against GALAP found ([10]; single active, 6 g/ha a.i.): 60; herbicidal activity against GERDI found ([11]; single active, 3 g/ha a.i.): 55; herbicidal activity against GERDI found ([11]; single active, 6 g/ha a.i.): 55; herbicidal activity against KCHSC found ([12]; single active, 3 g/ha a.i.): 15; herbicidal activity against MATCH found ([6]; single active, 3 g/ha a.i.): 35

Question: Which “herbicidal activity against ABUTH found” value ([1]; applied alone at 250 g/ha a.i.) does the source give for `CCc1cccc(C)c1N(C(=O)CCl)[C@@H](C)COC` [B.134, S-metolachlor] here?
Answer: 40

Question: What about the “herbicidal activity against ALOMY found” value ([2]; applied alone at 250 g/ha a.i.) of the same molecule?
Answer: 0

Question: What about the “herbicidal activity against ALOMY found” value ([2]; applied alone at 500 g/ha a.i.) of the same molecule?
Answer: 20

Question: And the “herbicidal activity against AMBEL found” value ([3]; applied alone at 250 g/ha a.i.)?
Answer: 25

Question: What about the “herbicidal activity against AMBEL found” value ([3]; applied alone at 500 g/ha a.i.) of the same molecule?
Answer: 65

Question: What about the “herbicidal activity against ERICA found” value ([9]; applied alone at 250 g/ha a.i.) of the same molecule?
Answer: 25

Question: And the “herbicidal activity against ERICA found” value ([9]; applied alone at 500 g/ha a.i.)?
Answer: 35

Question: What about the “herbicidal activity against GALAP found” value ([10]; applied alone at 250 g/ha a.i.) of the same molecule?
Answer: 45

Question: And the “herbicidal activity against GERDI found” value ([11]; applied alone at 500 g/ha a.i.)?
Answer: 30

Question: What about the “herbicidal activity against KCHSC found” value ([12]; applied alone at 500 g/ha a.i.) of the same molecule?
Answer: 30

Question: What about the “herbicidal activity against POLCO found” value ([7]; applied alone at 250 g/ha a.i.) of the same molecule?
Answer: 35

Question: And the “herbicidal activity against POLCO found” value ([7]; applied alone at 500 g/ha a.i.)?
Answer: 60

Question: And the “herbicidal activity against VIOAR found” value ([15]; applied alone at 250 g/ha a.i.)?
Answer: 0

Question: What about the “herbicidal activity against VIOAR found” value ([15]; applied alone at 500 g/ha a.i.) of the same molecule?
Answer: 0

Question: How did the “herbicidal activity against AMBEL found” value [3, 21] turn out when `CS(=O)(=O)c1cc(C(F)(F)F)ccc1C(=O)c1cnoc1C1CC1` [B.100, isoxaflutole] was run?
Answer: 45

Question: What about the “herbicidal activity against AMBEL found” value [3, 22] of the same molecule?
Answer: 45

Question: And the “herbicidal activity against ERICA found” value [9, 21]?
Answer: 80

Question: What about the “herbicidal activity against ERICA found” value [9, 22] of the same molecule?
Answer: 80

Question: And the “herbicidal activity against GERDI found” value [11, 21]?
Answer: 0

Question: And the “herbicidal activity against GERDI found” value [11, 22]?
Answer: 0

Question: And the “herbicidal activity against POLCO found” value [7, 21]?
Answer: 60

Question: What about the “herbicidal activity against VIOAR found” value [15, 22] of the same molecule?
Answer: 70

Question: How did the “herbicidal activity against ABUTH found” value ([1]; single active, 4 g/ha a.i.) turn out when `Nc1cc(Cl)nc(C(=O)O)c1Cl` [B.144, aminopyralid] was run?
Answer: 0

Question: And the “herbicidal activity against AMBEL found” value ([3]; single active, 8 g/ha a.i.)?
Answer: 75

Question: What about the “herbicidal activity against APESV found” value ([4]; 4 g/ha a.i.) of the same molecule?
Answer: 0

Question: What about the “herbicidal activity against KCHSC found” value ([12]; single active, 4 g/ha a.i.) of the same molecule?
Answer: 0

Question: And the “herbicidal activity against KCHSC found” value ([12]; single active, 8 g/ha a.i.)?
Answer: 0

Question: And the “herbicidal activity against POLCO found” value ([7]; single active, 4 g/ha a.i.)?
Answer: 98

Question: What about the “herbicidal activity against POLCO found” value ([7]; single active, 8 g/ha a.i.) of the same molecule?
Answer: 98

Question: And the “herbicidal activity against VIOLA found” value ([15]; single active, 4 g/ha a.i.)?
Answer: 0
